Test results published in PMC10583239 (CPT: Pharmacometrics & Systems Pharmacology, 2023).

Experiment: Clinical DDI cohort: midazolam with pomotrelvir 1050 mg b.i.d.
[1] = 1 mg midazolam alone, Day 1, N = 8
[2] = midazolam + pomotrelvir 1050 mg twice daily, Day 6
[3] = midazolam + pomotrelvir 1050 mg twice daily, Day 11

Structure (SMILES)	AUCinf geometric mean [1] [ng·h/mL]	AUClast geometric mean [1] [ng·h/mL]	Cmax geometric mean [1] [ng/mL]	AUCinf geometric mean ratio (MDZ + POMO)/(MDZ) (Day 6 vs Day 1)	AUClast geometric mean ratio (MDZ + POMO)/(MDZ) (Day 6 vs Day 1)	Cmax geometric mean ratio (MDZ + POMO)/(MDZ) (Day 6 vs Day 1)	AUCinf geometric mean ratio (MDZ + POMO)/(MDZ) (Day 11 vs Day 1)	AUClast geometric mean ratio (MDZ + POMO)/(MDZ) (Day 11 vs Day 1)	Cmax geometric mean ratio (MDZ + POMO)/(MDZ) (Day 11 vs Day 1)	AUCinf geometric mean [2] [ng·h/mL]	AUClast geometric mean [2] [ng·h/mL]	Cmax geometric mean [2] [ng/mL]	AUCinf geometric mean [3] [ng·h/mL]	AUClast geometric mean [3] [ng·h/mL]	Cmax geometric mean [3] [ng/mL]	Cmax (both, human, plasma, oral, 1 mg) [ng/mL]
OCc1ncc2n1-c1ccc(Cl)cc1C(c1ccccc1F)=NC2 [1‐OH‐midazolam, 1‐hydroxy‐midazolam]	4.76	4.72	1.36	0.65	0.62	0.53	0.56	0.56	0.58	3.09	2.87	0.73	2.66	2.64	0.8	–
Cc1ncc2n1-c1ccc(Cl)cc1C(c1ccccc1F)=NC2 [Midazolam, midazolam, reference compound]	–	–	–	1.48	1.51	1.09	1.33	1.36	1.09	–	–	4.44	–	–	4.44	4.06
